In patent US8716281B2, “Pyrimidine compounds that inhibit anaplastic lymphoma kinase” (Amgen Inc., priority 2010, dated 2014):

Target: T1, wild-type human ALK cytoplasmic domain (amino acids 1058-1620) (Homo sapiens, UniProt Q9UM73)
T1 construct: The cytoplasmic domain (amino acids 1058-1620) of wild-type human ALK; GST (N); made in house; host or cells: SF9 insect cells
Experiment: ALK Inhibition in Enzyme Assay (Lance TR-FRET)
Format: biochemical
Conditions: 2 nM enzyme, ATP at 40 μM (Km apparent), 90 minutes, mean of three replicates; read-out: ALK IC50
Description: ALK Inhibition in Enzyme Assay
Kinase activity of the purified protein was assessed using a Lance® TR-FRET assay. […] The reaction was allowed to proceed for 90 minutes at room temperature and was then terminated with 20 mM EDTA in 50 mM Tris (pH 7.5), 100 mM NaCl, 0.05% BSA, and 0.1% Tween-20. Phosphorylation of the peptide substrate was detected using the Lance® detection reagents streptavidin-allophycocyanin (SA-APC) and Eu-W1024 anti-phosphotyrosine antibody (PT66) from Perkin Elmer Life Sciences (Waltham, Mass.). The plates were read on a RUBY star plate reader (BMG LABTECH, Cary, N.C.) with an excitation wavelength of 320 nm.

T1 sequence (Q9UM73 1058-1620): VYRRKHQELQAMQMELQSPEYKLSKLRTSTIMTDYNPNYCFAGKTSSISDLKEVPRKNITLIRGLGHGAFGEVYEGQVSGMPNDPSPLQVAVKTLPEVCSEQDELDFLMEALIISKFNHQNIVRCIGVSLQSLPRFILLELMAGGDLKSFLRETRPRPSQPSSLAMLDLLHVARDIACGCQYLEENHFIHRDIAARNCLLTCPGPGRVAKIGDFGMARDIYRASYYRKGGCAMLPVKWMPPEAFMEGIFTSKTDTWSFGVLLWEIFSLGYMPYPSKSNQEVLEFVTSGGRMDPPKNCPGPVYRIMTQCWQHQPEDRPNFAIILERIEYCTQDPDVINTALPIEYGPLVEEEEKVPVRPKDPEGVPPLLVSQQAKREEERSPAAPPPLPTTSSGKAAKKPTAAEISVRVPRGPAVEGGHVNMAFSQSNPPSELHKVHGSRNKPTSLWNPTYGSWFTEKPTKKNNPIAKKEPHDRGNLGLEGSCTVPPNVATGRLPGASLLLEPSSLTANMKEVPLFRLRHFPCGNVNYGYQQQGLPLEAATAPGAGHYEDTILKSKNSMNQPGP

In the case of COc1cc(Nc2nccc(N3CC(C(=O)NCc4ccc(C)cc4)CCC3C)n2)cc(OC)c1OC (mixture of isomers) [Example 194, 6-Methyl-N-(4-Methylbenzyl)-1-(2-(3,4,5-Trimethoxyphenylamino)Pyrimidin-4-Yl)Piperidine-3-Carboxamide], the IC50 is reported as 100 to 1000 nM.
Molecule COc1cc(Nc2nccc(N3CC(C)CC(C(=O)NCc4ccc(C)cc4)C3)n2)cc(OC)c1OC (mixture of isomers) [Example 195, 5-Methyl-N-(4-Methylbenzyl)-1-(2-(3,4,5-Trimethoxyphenyl Amino)Pyrimidin-4-Yl)Piperidine-3-Carboxamide] has an IC50 of 1000 to 5000 nM.
COc1cc(Nc2nccc(N3CCNC(C(=O)NCc4ccc(C)cc4)C3)n2)cc(OC)c1OC (stereo not drawn) [Example 2, N-(4-Methylbenzyl)-4-(2-(3,4,5-Trimethoxyphenylamino)Pyrimidin-4-Yl)Piperazine-2-Carboxamide] was tested, and the IC50 was 1000 to 5000 nM.
In the case of O=C(NCc1ccc(OC(F)(F)F)cc1)[C@H]1CCCN(c2ccnc(Nc3ccc(N4CCOCC4)cc3)n2)C1 [Example 3, (S)-1-(2-(4-Morpholinophenylamino)Pyrimidin-4-Yl)-N-(4-(Trifluoromethoxy)Benzyl)Piperidine-3-Carboxamide], the IC50 is reported as 100 to 1000 nM.
Molecule COc1cc(Nc2nccc(N3CCSC(C(=O)NCc4ccc(C)cc4)C3)n2)cc(OC)c1OC (stereo not drawn) [Example 4, N-(4-Methylbenzyl)-4-(2-(3,4,5-Trimethoxy-Phenylamino)Pyrimidin-4-Yl)Thiomorpholine-2-Carboxamide] has an IC50 of 1000 to 5000 nM.
Molecule COc1cc(Nc2nccc(N3CCOC(C(=O)NCc4ccc(C)cc4)C3)n2)cc(OC)c1OC (stereo not drawn) [Example 5, N-(4-Methylbenzyl)-4-(2-(3,4,5-Trimethoxy-Phenylamino)Pyrimidin-4-Yl)Morpholine-2-Carboxamide] has an IC50 of 1000 to 5000 nM.
Work on COc1cc(Nc2ncc(C)c(N3CCC[C@H](C(=O)NCc4ccc(C)cc4)C3)n2)cc(OC)c1OC [Example 8, (S)-1-(5-Methyl-2-(3,4,5-Trimethoxyphenyl-Amino)Pyrimidin-4-Yl)-N-(4-Methylbenzyl)Piperidine-3-Carboxamide] yielded an IC50 of 1000 to 5000 nM.
COc1cc(Nc2ncc(C)c(N3CCC[C@@H](C(=O)NCc4ccc(C)cc4)C3)n2)cc(OC)c1OC [Example 9, (R)-1-(5-Methyl-2-(3,4,5-Trimethoxyphenyl-Amino)Pyrimidin-4-Yl)-N-(4-Methylbenzyl)Piperidine-3-Carboxamide] was tested, and the IC50 was 100 to 1000 nM.
COc1cc(Nc2ncc(Cl)c(N3CCC[C@H](C(=O)NCc4ccc(C)cc4)C3)n2)cc(OC)c1OC [Example 10, (S)-1-(5-Chloro-2-(3,4,5-Trimethoxyphenyl-Amino)Pyrimidin-4-Yl)-N-(4-Methylbenzyl)Piperidine-3-Carboxamide] gave an IC50 of 100 to 1000 nM.
Molecule COc1cc(Nc2nc(C)cc(N3CCC[C@H](C(=O)NCc4ccc(C)cc4)C3)n2)cc(OC)c1OC [Example 11, (S)-1-(6-Methyl-2-(3,4,5-Trimethoxyphenyl-Amino)Pyrimidin-4-Yl)-N-(4-Methylbenzyl)Piperidine-3-Carboxamide] has an IC50 of 5000 to 10000 nM.
Molecule COc1cc(Nc2nc(Cl)cc(N3CCC[C@H](C(=O)NCc4ccc(C)cc4)C3)n2)cc(OC)c1OC [Example 12, (S)-1-(6-Chloro-2-(3,4,5-Trimethoxyphenyl-Amino)Pyrimidin-4-Yl)-N-(4-Methylbenzyl)Piperidine-3-Carboxamide] has an IC50 of over 10000 nM.
COc1cc(Nc2nccc(N3CCC[C@@H](C(=O)NCc4ccc(F)cc4)C3)n2)cc(OC)c1OC [Example 13, (R)—N-(4-Fluorobenzyl)-1-(2-(3,4,5-Trimethoxy-Phenylamino)Pyrimidin-4-Yl)Piperidine-3-Carboxamide] gave an IC50 of 1000 to 5000 nM.
COc1cc(Nc2nccc(N3CCC[C@H](C(=O)NCc4ccc(F)cc4)C3)n2)cc(OC)c1OC [Example 14, (S)-N-((4-fluorophenyl)methyl)-1-(2-((3,4,5-tris(methyloxy)phenyl)amino)-4-pyrimidinyl)-3-piperidinecarboxamide] was tested, and the IC50 was 100 to 1000 nM.
In the case of COc1ccc(CNC(=O)[C@H]2CCCN(c3ccnc(Nc4cc(OC)c(OC)c(OC)c4)n3)C2)cc1 [Example 15, (S)-N-((4-(methyloxy)phenyl)methyl)-1-(2-((3,4,5-tris(methyloxy)phenyl)amino)-4-pyrimidinyl)-3-piperidinecarboxamide], the IC50 is reported as 100 to 1000 nM.
Work on COc1cc(Nc2nccc(N3CCC[C@@H](C(=O)NCc4ccncc4)C3)n2)cc(OC)c1OC [Example 18, (R)-N-(4-pyridinylmethyl)-1-(2-((3,4,5-trimethoxyphenyl)amino)-4-pyrimidinyl)-3-piperidinecarboxamide] yielded an IC50 of 5000 to 10000 nM.
Work on COc1cc(Nc2nccc(N3CCC[C@@H](C(=O)NCc4ccc(F)cc4)C3)n2)cc(OC)c1OC [Example 19, (R)-N-(4-fluorobenzyl)-1-(2-((3,4,5-trimethoxyphenyl)amino)-4-pyrimidinyl)-3-piperidinecarboxamide] yielded an IC50 of 1000 to 5000 nM.
For COc1cc(Nc2nccc(N3CCC[C@H](C(=O)NC(C)c4ccc(Br)cc4)C3)n2)cc(OC)c1OC (stereo partly drawn) [Example 26, (S)-N-(1-(4-bromophenyl)ethyl)-1-(2-((3,4,5-trimethoxyphenyl)amino)-4-pyrimidinyl)-3-piperidinecarboxamide], the IC50 was 100 to 1000 nM.
COc1cc(Nc2nccc(N3CCC[C@H](C(=O)N[C@@H](C)c4ccc(Br)cc4)C3)n2)cc(OC)c1OC [Example 27, (S)-N-((S)-1-(4-bromophenyl)ethyl)-1-(2-((3,4,5-trimethoxyphenyl)amino)-4-pyrimidinyl)-3-piperidinecarboxamide] was tested, and the IC50 was 100 to 1000 nM.
Molecule COc1cc(Nc2nccc(N3CCC[C@H](C(=O)NCc4cc(Cl)ccc4C)C3)n2)cc(OC)c1OC [Example 28, (S)-N-(5-chloro-2-methylbenzyl)-1-(2-((3,4,5-trimethoxyphenyl)amino)-4-pyrimidinyl)-3-piperidinecarboxamide] has an IC50 of 50 to 100 nM.
COc1cc(Nc2nccc(N3CCC[C@H](C(=O)NCc4ccc(Cl)cc4F)C3)n2)cc(OC)c1OC [Example 29, (S)-N-(4-chloro-2-fluorobenzyl)-1-(2-((3,4,5-trimethoxyphenyl)amino)-4-pyrimidinyl)-3-piperidinecarboxamide] gave an IC50 of 50 to 100 nM.
With COc1cc(Nc2nccc(N3CCC[C@H](C(=O)NC(c4ccccc4)C(F)(F)F)C3)n2)cc(OC)c1OC (stereo partly drawn) [Example 30, (S)-N-(2,2,2-trifluoro-1-phenylethyl)-1-(2-((3,4,5-trimethoxyphenyl)amino)-4-pyrimidinyl)-3-piperidinecarboxamide] the IC50 was 1000 to 5000 nM.
Work on COc1cc(Nc2nccc(N3CCC[C@H](C(=O)NCc4cccc5ccccc45)C3)n2)cc(OC)c1OC [Example 31, (S)-N-(1-naphthalenylmethyl)-1-(2-((3,4,5-trimethoxyphenyl)amino)-4-pyrimidinyl)-3-piperidinecarboxamide] yielded an IC50 of 1000 to 5000 nM.
COc1ccccc1CNC(=O)[C@H]1CCCN(c2ccnc(Nc3cc(OC)c(OC)c(OC)c3)n2)C1 [Example 32, (S)-N-(2-methoxybenzyl)-1-(2-((3,4,5-trimethoxyphenyl)amino)-4-pyrimidinyl)-3-piperidinecarboxamide] showed an IC50 of 5000 to 10000 nM.
COc1cc(Nc2nccc(N3CCC[C@H](C(=O)NCc4ccc(C(F)(F)F)cc4)C3)n2)cc(OC)c1OC [Example 34, (S)-N-(4-(trifluoromethyl)benzyl)-1-(2-((3,4,5-trimethoxyphenyl)amino)-4-pyrimidinyl)-3-piperidinecarboxamide] gave an IC50 of 50 to 100 nM.
